How the values were obtained:
[1] = system: three bacterium and two fungal strains; test: Testing of commercially available alkyldimonium hydroxypropyl alkylglucosides for biocidal efficacy in aqueous buffered borate solution; format: cell-based
A. Niger = test: Preservative efficacy response study against A. Niger in borate-buffered solution; format: cell-based; details: S-1218 in the solutions with or without PHMB
Excerpt: A “preservative-effective amount” is defined as a sufficient amount of alkyldimonium hydroxypropyl alkylglucoside of general formula I or general formula II in the formulation to reduce the cell population by two log orders after 7 days of the five following microorganisms, Staphylococcus aureus, Pseudomonas aeruginosa, Eschrechia coli, Candida albicans and Aspergillus niger, or that which will prevent the growth of fungal bioburden by ±0.5 log.
Data obtained from a preservative efficacy response study of S-1218 with or without the stated concentrations of PHMB in borate-buffered solution containing 0.85 wt. % sodium borate, 0.06 wt. % boric acid and 0.26 wt. % sodium chloride is provided in Tables 3A and 3B. The study also included a response against S. Aureus, P. Aeruginosa, E. Coli, and C. Albicans.
Data obtained from a preservative efficacy response study of select alkyldimonium hydroxypropyl alkylglucosides of general formula I or general formula II in borate-buffered solution containing 0.85 wt. % sodium borate, 0.06 wt. % boric acid and 0.26 wt. % sodium chloride is provided in Table 4. Example 9 includes 0.2 wt. % S-1218; Example 10 includes 0.2 wt. % S-1010P; Example 11 includes 0.2 wt. % L-1210P; and Example 12 includes 0.2 wt. % S-1010. The study also included a response against S. Aureus, P. Aeruginosa, E. Coli, and C. Albicans.

stearyl dimonium hydropropyl laurylglucoside
biocidal efficacy (in words) [1]: relatively high increase in biocidal efficacy

stearyldimonium hydroxypropyl laurylglucosides chloride [Example S-1218]
biocidal control of A. Niger (in words) (A. Niger): significant biocidal control

stearyldimonium hydropropyl decylglucoside
biocidal efficacy (in words) [1]: relatively high increase in biocidal efficacy

From patent US20100075919A1, “COMPOSITIONS COMPRISING ALKYLDIMONIUM HYDROXYPROPYL ALKYLGLUCOSIDES” (priority 2008, published 2010)
